15 molecules from BindingDB's records for doi:10.7270/Q2930S2V (Taibah University, 2017) can be followed below.

Some results are limits rather than exact numbers.

DNA-dependent protein kinase catalytic subunit, sequence (P78527 whole entry): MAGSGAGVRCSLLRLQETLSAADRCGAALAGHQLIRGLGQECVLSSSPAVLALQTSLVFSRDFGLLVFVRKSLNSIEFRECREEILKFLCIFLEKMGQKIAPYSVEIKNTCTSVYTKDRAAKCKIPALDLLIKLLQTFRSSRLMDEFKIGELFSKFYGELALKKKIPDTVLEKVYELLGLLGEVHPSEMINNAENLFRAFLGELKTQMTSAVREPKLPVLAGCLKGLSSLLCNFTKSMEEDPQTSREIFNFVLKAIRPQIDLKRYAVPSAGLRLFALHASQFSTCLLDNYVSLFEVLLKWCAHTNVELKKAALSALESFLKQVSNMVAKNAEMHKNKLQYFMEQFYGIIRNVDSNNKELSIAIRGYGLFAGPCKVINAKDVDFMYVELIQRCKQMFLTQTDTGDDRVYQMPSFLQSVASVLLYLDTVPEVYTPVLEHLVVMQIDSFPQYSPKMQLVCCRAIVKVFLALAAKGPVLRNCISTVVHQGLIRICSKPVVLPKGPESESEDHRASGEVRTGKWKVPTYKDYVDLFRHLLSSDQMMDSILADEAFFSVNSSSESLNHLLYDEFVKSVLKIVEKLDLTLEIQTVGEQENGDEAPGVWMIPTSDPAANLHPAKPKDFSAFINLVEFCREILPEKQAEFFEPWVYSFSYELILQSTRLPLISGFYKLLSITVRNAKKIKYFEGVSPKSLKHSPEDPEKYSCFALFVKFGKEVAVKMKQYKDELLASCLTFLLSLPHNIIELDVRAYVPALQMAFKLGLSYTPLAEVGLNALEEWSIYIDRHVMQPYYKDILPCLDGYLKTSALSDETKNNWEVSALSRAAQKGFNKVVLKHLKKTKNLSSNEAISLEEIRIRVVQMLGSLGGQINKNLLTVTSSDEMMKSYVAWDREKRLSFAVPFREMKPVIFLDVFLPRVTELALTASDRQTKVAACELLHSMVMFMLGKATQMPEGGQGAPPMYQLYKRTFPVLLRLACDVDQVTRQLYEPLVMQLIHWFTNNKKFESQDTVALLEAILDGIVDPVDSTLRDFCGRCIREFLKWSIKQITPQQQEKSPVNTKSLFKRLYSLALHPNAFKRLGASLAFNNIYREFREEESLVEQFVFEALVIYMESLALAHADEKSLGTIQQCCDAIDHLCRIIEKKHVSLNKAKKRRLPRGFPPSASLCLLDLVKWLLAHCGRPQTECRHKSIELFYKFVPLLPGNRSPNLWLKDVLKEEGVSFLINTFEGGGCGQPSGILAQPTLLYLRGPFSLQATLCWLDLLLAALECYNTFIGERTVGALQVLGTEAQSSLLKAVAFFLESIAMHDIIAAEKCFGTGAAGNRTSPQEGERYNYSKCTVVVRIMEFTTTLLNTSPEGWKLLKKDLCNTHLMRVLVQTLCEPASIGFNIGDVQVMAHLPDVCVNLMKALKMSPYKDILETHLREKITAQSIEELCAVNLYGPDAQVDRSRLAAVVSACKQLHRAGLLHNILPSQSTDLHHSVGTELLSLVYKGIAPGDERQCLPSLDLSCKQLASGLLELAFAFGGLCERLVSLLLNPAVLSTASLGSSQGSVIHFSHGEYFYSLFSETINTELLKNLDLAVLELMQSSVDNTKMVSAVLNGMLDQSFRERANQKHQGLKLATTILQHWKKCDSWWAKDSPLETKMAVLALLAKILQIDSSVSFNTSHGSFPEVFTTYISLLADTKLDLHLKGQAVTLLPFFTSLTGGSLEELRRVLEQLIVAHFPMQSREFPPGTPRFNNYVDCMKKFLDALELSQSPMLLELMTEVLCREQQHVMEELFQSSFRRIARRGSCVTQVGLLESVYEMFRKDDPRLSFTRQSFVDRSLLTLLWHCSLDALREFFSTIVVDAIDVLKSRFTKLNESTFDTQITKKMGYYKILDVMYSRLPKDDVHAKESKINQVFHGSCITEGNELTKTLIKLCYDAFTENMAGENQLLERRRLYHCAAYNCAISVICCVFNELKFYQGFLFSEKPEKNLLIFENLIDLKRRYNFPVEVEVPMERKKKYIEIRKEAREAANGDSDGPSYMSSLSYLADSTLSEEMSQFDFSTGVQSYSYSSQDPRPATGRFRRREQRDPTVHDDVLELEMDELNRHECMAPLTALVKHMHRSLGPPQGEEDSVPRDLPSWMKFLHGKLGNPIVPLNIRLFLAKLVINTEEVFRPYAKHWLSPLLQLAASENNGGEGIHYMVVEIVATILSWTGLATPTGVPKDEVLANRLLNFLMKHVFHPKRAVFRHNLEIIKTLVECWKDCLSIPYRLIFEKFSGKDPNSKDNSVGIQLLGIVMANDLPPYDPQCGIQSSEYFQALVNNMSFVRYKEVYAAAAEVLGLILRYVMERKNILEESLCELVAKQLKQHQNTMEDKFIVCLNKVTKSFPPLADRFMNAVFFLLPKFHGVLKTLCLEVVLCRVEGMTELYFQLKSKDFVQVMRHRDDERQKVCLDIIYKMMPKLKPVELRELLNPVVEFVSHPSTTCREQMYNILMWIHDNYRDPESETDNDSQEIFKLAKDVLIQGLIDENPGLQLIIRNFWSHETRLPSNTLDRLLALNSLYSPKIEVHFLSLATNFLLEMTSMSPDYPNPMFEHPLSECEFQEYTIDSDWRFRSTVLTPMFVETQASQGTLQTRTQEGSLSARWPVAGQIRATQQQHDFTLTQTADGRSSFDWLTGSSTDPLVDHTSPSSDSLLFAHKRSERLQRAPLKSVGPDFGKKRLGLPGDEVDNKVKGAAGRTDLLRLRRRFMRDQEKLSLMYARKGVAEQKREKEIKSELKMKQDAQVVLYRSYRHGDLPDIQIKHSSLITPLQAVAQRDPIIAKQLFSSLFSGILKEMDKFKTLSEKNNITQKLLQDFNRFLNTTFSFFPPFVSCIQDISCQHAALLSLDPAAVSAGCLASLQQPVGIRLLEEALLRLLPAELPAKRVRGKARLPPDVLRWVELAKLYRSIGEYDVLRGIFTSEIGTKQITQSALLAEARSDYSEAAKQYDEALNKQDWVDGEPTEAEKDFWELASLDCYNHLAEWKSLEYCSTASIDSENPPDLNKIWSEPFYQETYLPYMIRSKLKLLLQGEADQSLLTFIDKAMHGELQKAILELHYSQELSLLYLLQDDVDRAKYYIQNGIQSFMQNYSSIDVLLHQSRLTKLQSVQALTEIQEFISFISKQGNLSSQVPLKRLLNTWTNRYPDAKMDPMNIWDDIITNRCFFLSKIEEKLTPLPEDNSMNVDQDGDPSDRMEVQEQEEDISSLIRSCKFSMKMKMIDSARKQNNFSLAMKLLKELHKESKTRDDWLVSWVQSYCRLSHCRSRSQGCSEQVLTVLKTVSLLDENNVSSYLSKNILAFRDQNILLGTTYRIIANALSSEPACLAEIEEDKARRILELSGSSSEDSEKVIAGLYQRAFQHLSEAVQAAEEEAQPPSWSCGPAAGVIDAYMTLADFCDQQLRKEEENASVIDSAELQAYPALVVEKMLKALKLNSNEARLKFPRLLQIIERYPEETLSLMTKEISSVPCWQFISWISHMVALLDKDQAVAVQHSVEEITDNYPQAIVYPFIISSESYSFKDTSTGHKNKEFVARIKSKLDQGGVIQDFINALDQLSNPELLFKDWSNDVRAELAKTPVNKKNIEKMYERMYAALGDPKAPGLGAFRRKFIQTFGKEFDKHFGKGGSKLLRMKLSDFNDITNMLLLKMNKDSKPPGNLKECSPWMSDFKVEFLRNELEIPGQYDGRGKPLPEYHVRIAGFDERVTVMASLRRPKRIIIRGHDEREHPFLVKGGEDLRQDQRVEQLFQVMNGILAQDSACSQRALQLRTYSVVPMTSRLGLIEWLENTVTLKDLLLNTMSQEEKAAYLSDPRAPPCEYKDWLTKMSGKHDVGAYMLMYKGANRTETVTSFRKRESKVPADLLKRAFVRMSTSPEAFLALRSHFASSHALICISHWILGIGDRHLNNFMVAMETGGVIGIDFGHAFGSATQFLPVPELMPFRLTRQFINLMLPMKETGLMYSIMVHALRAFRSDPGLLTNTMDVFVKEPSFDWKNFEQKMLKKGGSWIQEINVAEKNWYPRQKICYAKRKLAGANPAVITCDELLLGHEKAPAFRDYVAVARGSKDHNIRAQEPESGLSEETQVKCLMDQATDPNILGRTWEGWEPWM

This assay has as its target DNA-dependent protein kinase catalytic subunit (Homo sapiens, UniProt P78527). Briefly: DNA-PK Enzyme Inhibitory Assay. How it is done:
The assays of DNA-PK were performed by Reaction Biology Corporation, One Great Valley Parkway, Suite 2 Malvern, PA 19355 USA. All Compounds were dissolved in DMSO (negative control solvent) and tested for their ability to inhibit human DNA-PK enzyme activity. All synthesized compounds were tested in a 10-dose IC50 profile with 4-fold serial dilutions starting at concentration 100 μM. The control compound, LY294002 was tested in a 10-dose IC50 profile with 3-fold serial dilutions starting at 10 μM concentration. Reactions were carried out using 20 μM peptide substrate [EPPLSQEAFADLWKK], 10 μg/ml DNA and 10 μM ATP using the HTRF assay format.
One may read the IC50 as the concentration at which inhibition is half-maximal. Higher therefore signals a need for much substance. Molecule `Cc1c(OCC(=O)Nc2ccc(S(=O)(=O)Nc3ccccn3)cc2)ccc2c(=O)nc(N3CCOCC3)oc12` [2-((8-Methyl-2-morpholino-4-oxo-4H-benzo[e][1,3]oxazin-7-yl)oxy)-N-(4-(N-(pyridin-2-yl)sulfamoyl)phenyl)acetamide (7c)] displayed an IC50 of 0.25 µM. With `Cc1c(OCC(=O)Nc2ccc(S(=O)(=O)Nc3nccs3)cc2)ccc2c(=O)nc(N3CCOCC3)oc12` [2-((8-Methyl-2-morpholino-4-oxo-4H-benzo[e][1,3]oxazin-7-yl)oxy)-N-(4-(N-(thiazol-2-yl)sulfamoyl)phenyl)acetamide (7d)], it took 3.5 µM to reach half-maximal inhibition (IC50). This IC50 is about 14-fold higher than that of the molecule before.

In turn, `Cc1ccc(CNC(=O)COc2ccc3c(=O)nc(N4CCOCC4)oc3c2C)cc1` [2-((8-Methyl-2-morpholino-4-oxo-4H-benzo[e][1,3]oxazin-7-yl)oxy)-N-(4-methylbenzyl)acetamide (9c)] showed an IC50 of 20 µM. In the case of `Cc1c(OCC(=O)Nc2ccc(S(N)(=O)=O)cc2)ccc2c(=O)nc(N3CCOCC3)oc12` [2-((8-Methyl-2-morpholino-4-oxo-4H-benzo[e][1,3]oxazin-7-yl)oxy)-N-(4-sulfamoylphenyl)acetamide (7a)] it was 40 µM.

On to `CCC(C)C(NC(=O)COc1ccc2c(=O)nc(N3CCOCC3)oc2c1C)C(=O)O` (stereo not given) [3-Methyl-2-(2-((8-methyl-2-morpholino-4-oxo-4H-benzo[e][1,3]oxazin-7-yl)oxy)acetamido)pentanoic acid (11b)], for which the IC50 worked out at 80 µM. The molecule `Cc1c(OCC(=O)N[C@@H](C)C(=O)O)ccc2c(=O)nc(N3CCOCC3)oc12` [(2-((8-Methyl-2-morpholino-4-oxo-4H-benzo[e][1,3]oxazin-7-yl)oxy)acetyl)alanine (11a)] returned an IC50 of 100 µM. Regarding `Cc1c(OCC(=O)N[C@@H](Cc2ccccc2)C(=O)O)ccc2c(=O)nc(N3CCOCC3)oc12` [(2-((8-Methyl-2-morpholino-4-oxo-4H-benzo[e][1,3]oxazin-7yl)oxy)acetyl)phenylalanine (11c)], the IC50 was 35 µM. Consider `Cc1noc(NS(=O)(=O)c2ccc(NC(=O)COc3ccc4c(=O)nc(N5CCOCC5)oc4c3C)cc2)c1C` [N-(4-(N-(3,4-dimethylisoxazol-5-yl)sulfamoyl)phenyl)-2-((8-methyl-2-morpholino-4-oxo-4H-benzo[e][1,3]oxazin-7-yl)oxy)acetamide (7f)], for which 5 µM corresponded to half-maximal inhibition (IC50).

The molecule `CC(=O)NS(=O)(=O)c1ccc(NC(=O)COc2ccc3c(=O)nc(N4CCOCC4)oc3c2C)cc1` [N-(4-(N-acetylsulfamoyl)phenyl)-2-((8-methyl-2-morpholino-4-oxo-4H-benzo[e][1,3]oxazin-7-yl)oxy)acetamide (7b)] displayed an IC50 of 35 µM. Next, `Cc1c(OCC(=O)Nc2ccc(S(=O)(=O)NC(=N)N)cc2)ccc2c(=O)nc(N3CCOCC3)oc12` [N-(4-(N-carbamimidoylsulfamoyl)phenyl)-2-((8-methyl-2-morpholino-4-oxo-4H-benzo[e][1,3]oxazin-7-yl)oxy)acetamide (7e)]: 25 µM. As to `Cc1c(OCC(=O)NCc2ccc(Cl)cc2)ccc2c(=O)nc(N3CCOCC3)oc12` [N-(4-chlorobenzyl)-2-((8-methyl-2-morpholino-4-oxo-4Hbenzo[e][1,3]oxazin-7-yl)oxy)acetamide (9d)], half-maximal inhibition (IC50) required 10 µM. As for `Cc1c(OCC(=O)NCc2ccc(F)cc2)ccc2c(=O)nc(N3CCOCC3)oc12` [N-(4-fluorobenzyl)-2-((8-methyl-2-morpholino-4-oxo-4Hbenzo[e][1,3]oxazin-7-yl)oxy)acetamide (9e)], it took 4 µM to reach half-maximal inhibition (IC50). This IC50 lies about 2.5-fold lower than the previous one. In the case of `Cc1c(OCC(=O)NCc2ccc(O)cc2)ccc2c(=O)nc(N3CCOCC3)oc12` [N-(4-hydroxybenzyl)-2-((8-methyl-2-morpholino-4-oxo-4Hbenzo[e][1,3]oxazin-7-yl)oxy)acetamide (9f)], inhibition was half-maximal at 2.5 µM (IC50). Next, `COc1ccc(CNC(=O)COc2ccc3c(=O)nc(N4CCOCC4)oc3c2C)cc1` [N-(4-methoxybenzyl)-2-((8-methyl-2-morpholino-4-oxo-4Hbenzo[e][1,3]oxazin-7-yl)oxy)acetamide (9b)]: 15 µM. Next, `Cc1c(OCC(=O)NCc2ccccc2)ccc2c(=O)nc(N3CCOCC3)oc12` [N-benzyl-2-((8-methyl-2-morpholino-4-oxo-4H-benzo[e][1,3]oxazin-7-yl)oxy)acetamide (9a)]: more than 100 µM.
